No end group written: not given here.
How the values were obtained:
[1] = test system: putative neuropeptide FF receptor (apNPFFR); assay: IP1 accumulation assay, CHO-K1 cells transiently expressing putative neuropeptide FF receptor; type: cell-based, Aplysia californica; conditions: 10^-5 M compared with 10^-10 M (control); n = 3; no Gαq cotransfection
Method: To express putative Aplysia receptors transiently in CHO-K1 cells, the cDNAs were subcloned into the pcDNA3.1(+) or pcDNA3.1(+)-FLAG (for ELISA experiments only, see “Cell surface expression analysis by ELISA” section) expression vector. On the day before transfection, the CHO-K1 cells were passaged into 60 mm diameter tissue culture–treated dishes, and the transfection experiments were performed when the cells were grown to 70 to 90% confluence. CHO-K1 cells were transfected with the cDNA plasmid constructs using Turbofect Transfection reagent (Thermo Fisher Scientific, R0531), following the manufacturer’s instructions. In brief, 4 μg of the putative receptor plasmids [in pcDNA3.1(+) or pcDNA3.1(+)-FLAG] were mixed with 400 μl of Opti-MEM (Gibco, 11058021), followed by the addition of 15 μl of TurboFect Transfection reagent and incubated at room temperature for 15 min. The DNA/TurboFect mixture dropwise was then added to the dish, and the cells were incubated at 37 °C in a humidified incubator containing 5% CO2 overnight.
The next day, transfected cells were trypsinized and reseeded in an opaque white 96-well half-area (Corning, 3688) or 384-well tissue culture–treated plates (Corning, 3570) at a density of 20,000 cells/well in F-12K and 10% FBS and incubated at 37 °C in a humidified incubator containing 5% CO2 overnight. On the third day, the activation of the putative receptors was detected by monitoring intracellular IP1 concentration using an IP-One Gq kit (Cisbio, 62IPAPEB) in Tecan Spark. Except for using 0.5x reagent, all other procedures were performed following the manufacturer’s instructions. IP1 accumulation assay measures the accumulation of IP1, which is hydrolyzed from the second messenger, and inositol triphosphate. Inositol triphosphate is generated by the Gαq pathway when a GPCR is activated by an appropriate ligand.

[2] = biological target: T1, apTKRPR-B (Aplysia californica, UniProt A0AAU7STS1); assay: IP1 accumulation assay, CHO-K1 cells transiently expressing apTKRPR-B; type: cell-based; conditions: for IP1 response of apTKRPR-B in screening: 10^-5 M compared with 10^-10 M (control), no Gαq cotransfection
T1 sequence (A0AAU7STS1 1-447): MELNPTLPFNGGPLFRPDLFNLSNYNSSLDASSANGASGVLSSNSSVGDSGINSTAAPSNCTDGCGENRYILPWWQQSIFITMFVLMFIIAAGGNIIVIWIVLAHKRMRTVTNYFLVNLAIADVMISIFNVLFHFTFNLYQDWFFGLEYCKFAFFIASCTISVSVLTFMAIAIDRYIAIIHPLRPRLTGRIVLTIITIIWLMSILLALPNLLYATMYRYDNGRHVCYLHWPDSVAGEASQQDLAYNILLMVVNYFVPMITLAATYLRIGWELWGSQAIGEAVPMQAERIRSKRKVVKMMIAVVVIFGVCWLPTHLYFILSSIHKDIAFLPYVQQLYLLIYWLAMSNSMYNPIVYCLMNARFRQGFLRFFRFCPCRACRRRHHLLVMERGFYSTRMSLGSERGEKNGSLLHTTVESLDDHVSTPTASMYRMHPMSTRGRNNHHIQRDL
Method: (§1) To express putative Aplysia receptors transiently in CHO-K1 cells, the cDNAs were subcloned into the pcDNA3.1(+) or pcDNA3.1(+)-FLAG (for ELISA experiments only, see “Cell surface expression analysis by ELISA” section) expression vector. On the day before transfection, the CHO-K1 cells were passaged into 60 mm diameter tissue culture–treated dishes, and the transfection experiments were performed when the cells were grown to 70 to 90% confluence. CHO-K1 cells were transfected with the cDNA plasmid constructs using Turbofect Transfection reagent (Thermo Fisher Scientific, R0531), following the manufacturer’s instructions. […] The DNA/TurboFect mixture dropwise was then added to the dish, and the cells were incubated at 37 °C in a humidified incubator containing 5% CO2 overnight.
(§2) On the third day, the activation of the putative receptors was detected by monitoring intracellular IP1 concentration using an IP-One Gq kit (Cisbio, 62IPAPEB) in Tecan Spark. Except for using 0.5x reagent, all other procedures were performed following the manufacturer’s instructions. IP1 accumulation assay measures the accumulation of IP1, which is hydrolyzed from the second messenger, and inositol triphosphate. Inositol triphosphate is generated by the Gαq pathway when a GPCR is activated by an appropriate ligand.

[3] = biological target: T2, apTKRPR-A (Aplysia californica, UniProt A0AAU7SSZ1); assay: IP1 accumulation assay, CHO-K1 cells transiently expressing apTKRPR-A; type: cell-based; conditions: for IP1 response of apTKRPR-A in screening: 10^-5 M compared with 10^-10 M (control), no Gαq cotransfection
T2 sequence (A0AAU7SSZ1 1-398): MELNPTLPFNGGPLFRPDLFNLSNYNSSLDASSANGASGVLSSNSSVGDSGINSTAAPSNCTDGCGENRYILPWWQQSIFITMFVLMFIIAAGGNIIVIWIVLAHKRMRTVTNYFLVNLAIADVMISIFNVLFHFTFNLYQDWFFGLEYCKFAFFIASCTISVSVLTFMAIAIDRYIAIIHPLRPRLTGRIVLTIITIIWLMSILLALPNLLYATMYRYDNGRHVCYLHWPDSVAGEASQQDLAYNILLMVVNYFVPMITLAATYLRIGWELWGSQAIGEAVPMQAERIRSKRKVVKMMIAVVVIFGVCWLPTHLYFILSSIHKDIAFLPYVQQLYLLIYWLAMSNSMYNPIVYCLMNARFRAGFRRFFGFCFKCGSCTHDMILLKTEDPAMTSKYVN
Method: as §1, §2

[4] = co-transfected with Gαq (Gα16), 10^-5 M compared with 10^-10 M, n = 3

| Substance | IP1 response of putative apNPFFR in screening [1] | IP1 response of apTKRPR-B in screening ([2]; n = 3) | IP1 response of apTKRPR-B in screening with Gαq cotransfection [2, 4] | IP1 response of apTKRPR-A in screening ([3]; n = 3) | IP1 response of apTKRPR-A in screening with Gαq cotransfection [3, 4] | EC50 ([2]; log10 of EC50 in M, negative, IP1 accumulation, CHO-K1, mean ± SD of at least three independent experiments (apTKRP-1 n = 9; apTKRP-2a n = 11; apTKRP-2b n = 19; analogs, apTKRP-2b-OH n = 4), read-out: apTKRPR-B log[EC50] (converted)) | EC50 ([3]; log10 of EC50 in M, negative, IP1 accumulation, CHO-K1, mean ± SD of at least three independent experiments (apTKRP-1 n = 9; apTKRP-2a n = 11; apTKRP-2b n = 19; analogs, apTKRP-2b-OH n = 4), read-out: apTKRPR-A log[EC50] (converted)) |
| --- | --- | --- | --- | --- | --- | --- | --- |
| FMPGLESLLLAKYYQDAKW [apTKRPG-DP] | did not respond | did not activate | did not activate | did not activate | did not activate | – | – |
| H-QPHLGFHGSR-NH2 [apTKRP-2a] | did not respond | responded | – | responded | – | 12.9 nM | 107 nM |

— publication PMC11365428 (The Journal of Biological Chemistry, 2024)
